How the values were obtained:
Experiment in all cases: KINOMEscan
YANK3 = molecular target: T1, YANK3 (Homo sapiens, UniProt Q86UX6); format: binding; settings: read-out: % Ctrl
T1 construct: purchased DiscoveRx KINOMEscan

PFTK1 = molecular target: T2, PFTK1 (Homo sapiens, UniProt O94921); format: binding; settings: read-out: % Ctrl
T2 construct: purchased DiscoveRx KINOMEscan

FGFR1 = molecular target: T3, FGFR1 (Homo sapiens, UniProt P11362); format: binding; settings: read-out: % Ctrl
T3 construct: purchased DiscoveRx KINOMEscan

PKAC-beta = molecular target: T4, PKAC-beta (Homo sapiens, UniProt P22694); format: binding; settings: read-out: % Ctrl
T4 construct: purchased DiscoveRx KINOMEscan

CHEK1 = molecular target: T5, CHEK1 (Homo sapiens, UniProt O14757); format: binding; settings: read-out: % Ctrl
T5 construct: purchased DiscoveRx KINOMEscan
T5 sequence (O14757 whole entry): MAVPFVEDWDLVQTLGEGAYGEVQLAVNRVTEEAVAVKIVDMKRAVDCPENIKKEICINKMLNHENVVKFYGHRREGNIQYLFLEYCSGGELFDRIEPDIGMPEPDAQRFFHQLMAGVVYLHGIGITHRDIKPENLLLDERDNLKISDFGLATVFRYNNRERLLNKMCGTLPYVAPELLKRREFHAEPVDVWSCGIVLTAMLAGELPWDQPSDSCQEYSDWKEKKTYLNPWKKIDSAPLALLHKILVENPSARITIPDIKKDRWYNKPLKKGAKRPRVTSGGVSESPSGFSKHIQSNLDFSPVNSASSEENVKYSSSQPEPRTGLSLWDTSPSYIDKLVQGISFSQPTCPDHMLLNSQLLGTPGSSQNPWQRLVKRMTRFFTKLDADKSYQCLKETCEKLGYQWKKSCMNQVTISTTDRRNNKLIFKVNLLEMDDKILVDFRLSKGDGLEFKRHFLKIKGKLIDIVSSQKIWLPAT

STK35 = molecular target: T6, STK35 (Homo sapiens, UniProt Q8TDR2); format: binding; settings: read-out: % Ctrl
T6 construct: purchased DiscoveRx KINOMEscan

ALK = molecular target: T7, ALK (Homo sapiens, UniProt Q9UM73); format: binding; settings: read-out: % Ctrl
T7 construct: purchased DiscoveRx KINOMEscan

NLK = molecular target: T8, NLK (Homo sapiens, UniProt Q9UBE8); format: binding; settings: read-out: % Ctrl
T8 construct: purchased DiscoveRx KINOMEscan

FLT3(ITD,F691L) = format: binding, human; settings: 1 µM
ERK3 = molecular target: T9, ERK3 (Homo sapiens, UniProt Q16659); format: binding; settings: read-out: % Ctrl
T9 construct: purchased DiscoveRx KINOMEscan
T9 sequence (Q16659 whole entry): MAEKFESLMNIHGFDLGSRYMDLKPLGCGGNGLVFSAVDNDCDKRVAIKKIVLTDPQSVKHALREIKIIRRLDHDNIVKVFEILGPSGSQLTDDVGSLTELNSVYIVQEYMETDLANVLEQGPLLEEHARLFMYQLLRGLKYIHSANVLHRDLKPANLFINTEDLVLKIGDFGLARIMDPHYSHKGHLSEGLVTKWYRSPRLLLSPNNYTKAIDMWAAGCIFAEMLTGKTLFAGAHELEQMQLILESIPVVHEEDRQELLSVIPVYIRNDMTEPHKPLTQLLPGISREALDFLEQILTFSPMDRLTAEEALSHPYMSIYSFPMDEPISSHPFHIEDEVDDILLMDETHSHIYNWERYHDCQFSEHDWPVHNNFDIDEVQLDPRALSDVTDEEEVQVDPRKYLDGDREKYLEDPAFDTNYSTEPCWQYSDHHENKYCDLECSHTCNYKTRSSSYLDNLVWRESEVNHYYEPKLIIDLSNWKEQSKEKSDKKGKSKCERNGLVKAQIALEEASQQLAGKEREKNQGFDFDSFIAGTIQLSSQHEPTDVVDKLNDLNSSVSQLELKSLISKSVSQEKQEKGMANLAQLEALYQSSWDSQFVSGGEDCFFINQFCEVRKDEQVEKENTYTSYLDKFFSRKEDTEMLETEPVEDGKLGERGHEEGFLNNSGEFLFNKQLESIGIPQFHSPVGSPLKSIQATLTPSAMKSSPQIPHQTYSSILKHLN

p38-delta = molecular target: T10, p38-delta (Homo sapiens, UniProt O15264); format: binding; settings: read-out: % Ctrl
T10 construct: purchased DiscoveRx KINOMEscan

GSK3A = molecular target: T11, GSK3A (Homo sapiens, UniProt P49840); format: binding; settings: read-out: % Ctrl
T11 construct: purchased DiscoveRx KINOMEscan
T11 sequence (P49840 whole entry): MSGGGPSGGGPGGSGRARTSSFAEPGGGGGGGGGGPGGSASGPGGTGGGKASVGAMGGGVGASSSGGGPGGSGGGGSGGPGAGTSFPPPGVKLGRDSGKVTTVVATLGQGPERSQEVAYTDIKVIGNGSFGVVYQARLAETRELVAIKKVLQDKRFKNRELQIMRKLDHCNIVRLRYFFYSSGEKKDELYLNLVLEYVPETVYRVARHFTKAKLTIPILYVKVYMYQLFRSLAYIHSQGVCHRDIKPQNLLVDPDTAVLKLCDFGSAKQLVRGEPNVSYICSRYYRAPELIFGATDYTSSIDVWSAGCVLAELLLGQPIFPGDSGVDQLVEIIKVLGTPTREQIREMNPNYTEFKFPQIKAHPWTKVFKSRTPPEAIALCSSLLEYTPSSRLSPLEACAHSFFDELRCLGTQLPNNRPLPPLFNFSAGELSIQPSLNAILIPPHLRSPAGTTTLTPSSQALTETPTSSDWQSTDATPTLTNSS

HASPIN = molecular target: T12, HASPIN (Homo sapiens, UniProt Q8TF76); format: binding; parameters: purchased DiscoveRx KINOMEscan; settings: read-out: % Ctrl
T12 sequence (Q8TF76 1-798): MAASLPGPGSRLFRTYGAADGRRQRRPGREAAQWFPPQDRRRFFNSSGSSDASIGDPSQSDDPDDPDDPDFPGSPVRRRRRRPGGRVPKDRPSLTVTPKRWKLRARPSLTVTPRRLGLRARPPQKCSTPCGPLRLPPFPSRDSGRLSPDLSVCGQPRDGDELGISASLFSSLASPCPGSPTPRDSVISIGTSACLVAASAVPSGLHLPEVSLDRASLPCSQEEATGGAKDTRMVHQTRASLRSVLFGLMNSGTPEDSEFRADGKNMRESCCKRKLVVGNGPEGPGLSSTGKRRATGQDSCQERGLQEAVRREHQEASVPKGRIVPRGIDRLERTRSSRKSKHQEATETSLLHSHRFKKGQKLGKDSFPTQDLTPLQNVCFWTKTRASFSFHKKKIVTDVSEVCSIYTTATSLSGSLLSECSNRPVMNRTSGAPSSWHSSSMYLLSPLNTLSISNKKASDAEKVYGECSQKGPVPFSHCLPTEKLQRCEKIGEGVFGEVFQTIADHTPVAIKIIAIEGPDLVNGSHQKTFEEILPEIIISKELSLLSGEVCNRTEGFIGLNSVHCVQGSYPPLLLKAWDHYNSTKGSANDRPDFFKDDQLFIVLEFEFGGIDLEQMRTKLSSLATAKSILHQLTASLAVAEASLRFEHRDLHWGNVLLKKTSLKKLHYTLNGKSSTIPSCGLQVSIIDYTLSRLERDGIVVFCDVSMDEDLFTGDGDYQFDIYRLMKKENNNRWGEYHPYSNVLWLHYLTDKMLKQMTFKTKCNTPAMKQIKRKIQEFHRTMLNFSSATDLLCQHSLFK

CSNK1G2 = molecular target: T13, CSNK1G2 (Homo sapiens, UniProt P78368); format: binding; settings: read-out: % Ctrl
T13 construct: purchased DiscoveRx KINOMEscan

PIK3CA(E542K) = molecular target: T14, PIK3CA(E542K) (Homo sapiens, UniProt P42336, E542K); format: binding; settings: read-out: % Ctrl
T14 construct: purchased DiscoveRx KINOMEscan

SRC = molecular target: T15, SRC (Homo sapiens, UniProt P12931); format: binding; settings: read-out: % Ctrl
T15 construct: purchased DiscoveRx KINOMEscan

CDKL1 = molecular target: T16, CDKL1 (Homo sapiens, UniProt Q00532); format: binding; settings: read-out: % Ctrl
T16 construct: purchased DiscoveRx KINOMEscan

PKN1 = molecular target: T17, PKN1 (Homo sapiens, UniProt Q16512); format: binding; settings: read-out: % Ctrl
T17 construct: purchased DiscoveRx KINOMEscan

YANK2 = molecular target: T18, YANK2 (Homo sapiens, UniProt Q9NY57); format: binding; settings: read-out: % Ctrl
T18 construct: purchased DiscoveRx KINOMEscan

ULK1 = molecular target: T19, ULK1 (Homo sapiens, UniProt O75385); format: binding; settings: read-out: % Ctrl
T19 construct: purchased DiscoveRx KINOMEscan
T19 sequence (O75385 whole entry): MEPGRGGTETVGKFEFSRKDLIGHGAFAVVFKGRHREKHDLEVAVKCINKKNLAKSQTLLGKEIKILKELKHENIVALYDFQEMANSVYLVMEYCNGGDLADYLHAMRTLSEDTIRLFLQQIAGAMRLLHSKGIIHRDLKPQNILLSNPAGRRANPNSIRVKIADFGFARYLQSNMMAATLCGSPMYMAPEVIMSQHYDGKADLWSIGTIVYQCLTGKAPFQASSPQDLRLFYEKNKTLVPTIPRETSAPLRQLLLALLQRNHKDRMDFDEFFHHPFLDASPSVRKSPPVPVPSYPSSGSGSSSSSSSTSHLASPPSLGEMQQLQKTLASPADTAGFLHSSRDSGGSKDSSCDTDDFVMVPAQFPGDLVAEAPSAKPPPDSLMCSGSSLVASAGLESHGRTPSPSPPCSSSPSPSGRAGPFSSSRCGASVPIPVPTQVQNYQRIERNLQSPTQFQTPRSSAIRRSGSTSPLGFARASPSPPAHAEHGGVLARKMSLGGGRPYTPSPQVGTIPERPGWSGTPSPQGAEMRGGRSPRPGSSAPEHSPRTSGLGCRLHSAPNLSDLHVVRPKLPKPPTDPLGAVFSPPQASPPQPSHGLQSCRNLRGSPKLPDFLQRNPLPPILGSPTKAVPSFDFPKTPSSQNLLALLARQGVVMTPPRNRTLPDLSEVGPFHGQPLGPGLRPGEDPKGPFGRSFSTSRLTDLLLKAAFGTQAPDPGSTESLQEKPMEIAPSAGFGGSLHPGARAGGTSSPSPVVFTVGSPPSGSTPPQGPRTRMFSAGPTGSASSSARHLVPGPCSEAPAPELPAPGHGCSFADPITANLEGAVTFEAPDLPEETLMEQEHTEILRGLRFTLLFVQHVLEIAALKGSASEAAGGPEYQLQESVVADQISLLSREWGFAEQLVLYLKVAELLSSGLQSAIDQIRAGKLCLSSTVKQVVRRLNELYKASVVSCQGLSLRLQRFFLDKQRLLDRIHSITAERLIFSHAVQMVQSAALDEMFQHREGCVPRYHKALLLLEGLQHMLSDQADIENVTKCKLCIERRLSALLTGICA

EPHA4 = molecular target: T20, EPHA4 (Homo sapiens, UniProt P54764); format: binding; settings: read-out: % Ctrl
T20 construct: purchased DiscoveRx KINOMEscan

PRKCQ = molecular target: T21, PRKCQ (Homo sapiens, UniProt Q04759); format: binding; settings: read-out: % Ctrl
T21 construct: purchased DiscoveRx KINOMEscan

MAST1 = molecular target: T22, MAST1 (Homo sapiens, UniProt Q9Y2H9); format: binding; settings: read-out: % Ctrl
T22 construct: purchased DiscoveRx KINOMEscan

SIK = molecular target: T23, SIK (Homo sapiens, UniProt P57059); format: binding; settings: read-out: % Ctrl
T23 construct: purchased DiscoveRx KINOMEscan

GRK4 = molecular target: T24, GRK4 (Homo sapiens, UniProt P32298); format: binding; settings: read-out: % Ctrl
T24 construct: purchased DiscoveRx KINOMEscan

BMPR1B = molecular target: T25, BMPR1B (Homo sapiens, UniProt O00238); format: binding; settings: read-out: % Ctrl
T25 construct: purchased DiscoveRx KINOMEscan
T25 sequence (O00238 14-502): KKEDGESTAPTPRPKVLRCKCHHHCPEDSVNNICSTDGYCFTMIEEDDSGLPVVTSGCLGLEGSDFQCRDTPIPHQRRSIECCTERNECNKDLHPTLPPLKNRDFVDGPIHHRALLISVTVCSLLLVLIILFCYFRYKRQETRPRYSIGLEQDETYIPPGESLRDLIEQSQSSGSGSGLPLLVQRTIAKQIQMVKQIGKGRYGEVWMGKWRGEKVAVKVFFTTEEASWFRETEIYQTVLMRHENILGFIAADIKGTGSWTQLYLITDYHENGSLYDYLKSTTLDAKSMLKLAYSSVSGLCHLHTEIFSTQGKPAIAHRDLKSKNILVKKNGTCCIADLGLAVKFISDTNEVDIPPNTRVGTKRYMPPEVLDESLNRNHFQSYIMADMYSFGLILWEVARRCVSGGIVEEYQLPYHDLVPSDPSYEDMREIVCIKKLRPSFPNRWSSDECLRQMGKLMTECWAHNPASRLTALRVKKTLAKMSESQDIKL

DYRK1A = molecular target: T26, DYRK1A (Homo sapiens, UniProt Q13627); format: binding; settings: read-out: % Ctrl
T26 construct: purchased DiscoveRx KINOMEscan

PHKG2 = molecular target: T27, PHKG2 (Homo sapiens, UniProt P15735); format: binding; settings: read-out: % Ctrl
T27 construct: purchased DiscoveRx KINOMEscan

PAK3 = molecular target: T28, PAK3 (Homo sapiens, UniProt O75914); format: binding; settings: read-out: % Ctrl
T28 construct: purchased DiscoveRx KINOMEscan

ABL1(F317I)-nonP = molecular target: T29, ABL1(F317I)-nonP (Homo sapiens, UniProt P00519, F317I); format: binding; settings: read-out: % Ctrl
T29 construct: purchased DiscoveRx KINOMEscan

PIM1 = PIM1 (Homo sapiens, UniProt P11309); format: binding; parameters: purchased DiscoveRx KINOMEscan; settings: read-out: % Ctrl
Chain of PIM1 (P11309 whole entry): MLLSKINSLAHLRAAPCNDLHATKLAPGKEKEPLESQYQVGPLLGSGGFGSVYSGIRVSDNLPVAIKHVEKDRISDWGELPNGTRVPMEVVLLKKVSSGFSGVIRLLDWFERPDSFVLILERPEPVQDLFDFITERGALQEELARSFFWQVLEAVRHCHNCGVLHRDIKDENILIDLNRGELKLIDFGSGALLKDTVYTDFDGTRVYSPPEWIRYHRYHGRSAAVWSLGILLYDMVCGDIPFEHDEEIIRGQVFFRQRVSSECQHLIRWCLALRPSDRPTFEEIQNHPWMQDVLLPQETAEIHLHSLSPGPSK

DCAMKL1 = molecular target: T30, DCAMKL1 (Homo sapiens, UniProt O15075); format: binding; settings: read-out: % Ctrl
T30 construct: purchased DiscoveRx KINOMEscan
T30 sequence (O15075 whole entry): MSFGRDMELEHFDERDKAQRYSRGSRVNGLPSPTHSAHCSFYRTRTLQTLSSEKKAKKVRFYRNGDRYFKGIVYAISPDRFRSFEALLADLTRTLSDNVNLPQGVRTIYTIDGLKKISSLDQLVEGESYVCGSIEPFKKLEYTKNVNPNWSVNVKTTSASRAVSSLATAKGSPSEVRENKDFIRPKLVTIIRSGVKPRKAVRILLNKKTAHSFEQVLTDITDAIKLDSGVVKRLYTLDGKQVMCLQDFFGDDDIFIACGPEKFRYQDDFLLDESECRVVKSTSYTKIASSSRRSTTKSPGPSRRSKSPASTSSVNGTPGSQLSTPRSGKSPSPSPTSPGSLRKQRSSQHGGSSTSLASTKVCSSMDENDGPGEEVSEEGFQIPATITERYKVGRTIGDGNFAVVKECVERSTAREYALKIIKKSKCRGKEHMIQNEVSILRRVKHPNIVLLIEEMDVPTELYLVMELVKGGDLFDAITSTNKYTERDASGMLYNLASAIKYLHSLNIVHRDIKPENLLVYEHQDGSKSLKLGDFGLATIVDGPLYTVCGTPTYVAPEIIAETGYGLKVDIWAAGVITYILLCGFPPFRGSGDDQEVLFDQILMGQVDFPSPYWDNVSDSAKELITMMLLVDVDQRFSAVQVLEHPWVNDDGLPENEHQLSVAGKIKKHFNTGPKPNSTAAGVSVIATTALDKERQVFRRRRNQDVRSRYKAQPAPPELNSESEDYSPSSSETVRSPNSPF

EPHA1 = molecular target: T31, EPHA1 (Homo sapiens, UniProt P21709); format: binding; settings: read-out: % Ctrl
T31 construct: purchased DiscoveRx KINOMEscan

T2 sequence (O94921 whole entry): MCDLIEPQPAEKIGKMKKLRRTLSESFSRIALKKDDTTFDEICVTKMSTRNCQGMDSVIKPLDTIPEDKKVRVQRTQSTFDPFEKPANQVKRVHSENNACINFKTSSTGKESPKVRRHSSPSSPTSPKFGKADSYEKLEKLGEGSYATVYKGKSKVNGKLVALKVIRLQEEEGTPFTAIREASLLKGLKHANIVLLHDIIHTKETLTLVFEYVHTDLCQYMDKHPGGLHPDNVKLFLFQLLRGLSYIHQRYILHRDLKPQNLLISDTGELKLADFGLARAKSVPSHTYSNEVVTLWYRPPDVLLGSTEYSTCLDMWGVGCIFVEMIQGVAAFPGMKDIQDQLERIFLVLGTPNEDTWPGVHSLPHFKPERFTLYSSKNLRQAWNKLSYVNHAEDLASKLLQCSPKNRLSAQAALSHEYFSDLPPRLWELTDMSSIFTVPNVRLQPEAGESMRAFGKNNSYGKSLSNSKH

## CN1CCC(CNc2ccc3ncc(C(=O)Nc4cccc(OC(F)(F)F)c4)n3n2)CC1 [Cpd 2]
YANK3
  remaining binding at 1 µM: 99%
PFTK1
  remaining binding at 1 µM: 97%
FGFR1
  remaining binding at 1 µM: 100%
PKAC-beta
  remaining binding at 1 µM: 88%
CHEK1
  remaining binding at 1 µM: 86%
STK35
  remaining binding at 1 µM: 92%
ALK
  remaining binding at 1 µM: 100%
NLK
  remaining binding at 1 µM: 97%
FLT3(ITD,F691L)
  % Ctrl: 34%
ERK3
  remaining binding at 1 µM: 100%
p38-delta
  remaining binding at 1 µM: 100%
GSK3A
  remaining binding at 1 µM: 100%
HASPIN
  remaining binding at 1 µM: 30%
CSNK1G2
  remaining binding at 1 µM: 100%
PIK3CA(E542K)
  remaining binding at 1 µM: 92%
SRC
  remaining binding at 1 µM: 99%
CDKL1
  remaining binding at 1 µM: 97%
PKN1
  remaining binding at 1 µM: 100%
YANK2
  remaining binding at 1 µM: 100%
ULK1
  remaining binding at 1 µM: 98%
EPHA4
  remaining binding at 1 µM: 88%
PRKCQ
  remaining binding at 1 µM: 55%
MAST1
  remaining binding at 1 µM: 59%
SIK
  remaining binding at 1 µM: 99%
GRK4
  remaining binding at 1 µM: 93%
BMPR1B
  remaining binding at 1 µM: 99%
DYRK1A
  remaining binding at 1 µM: 100%
PHKG2
  remaining binding at 1 µM: 89%
PAK3
  remaining binding at 1 µM: 98%
ABL1(F317I)-nonP
  remaining binding at 1 µM: 61%
PIM1
  remaining binding at 1 µM: 5%
DCAMKL1
  remaining binding at 1 µM: 85%
EPHA1
  remaining binding at 1 µM: 100%

— article PMC7407272, “Induction of Lysosome Membrane Permeabilization as a Therapeutic Strategy to Target Pancreatic Cancer Stem Cells” (Cancers, 2020)
